The source of these data is patent publication US20230165875A1, “METHYLTHIONINIUM COMPOUNDS FOR USE IN THE TREATMENT OF COVID-19” (priority 2020, published 2023).

As usually defined, the IC50 is the concentration at which inhibition is half-maximal.

For one series, the system named is SARS-CoV2. As to the kind of experiment: Virucidal activity / neutralising viral toxicity in Vero-E6 cell assay in the dark (Cagno et al 2020 data). Type of series: cell-based.
On the set-up of series [1]: species or system rats. The following applies: rat, in vivo, po, 10 mg/kg. How it is done: A further whole body autoradiography study rats compared the distribution of LMT-associated radioactivity in brain, lung and heart following oral dosing at 10 mg/kg. […] The ratio specific for LMT in lung is therefore unknown. It is possible to relate plasma levels determined in a large clinical population (Schelter et al., 2019) to expected tissue levels of LMT at steady state across a wide dosing range of 8-250 mg/day. However, this depends critically on the tissue:plasma ratio for specifically affected tissues such a lung.

A short description of series [2]: Oxygen saturation and metHb in clinical trial patients after LMT dosing. Type of series: in vivo, human. How it is done:
The present inventors have used data available for patients participating in clinical trials to determine whether LMT enhances oxygen saturation of blood. Data were available for 18 subjects with oxygen saturation <94% at baseline (lower limit of normal range is 95%). Oxygen saturation levels were compared pre-dose and after 4 hrs in the clinic following administration of a single doses of LMT at 4 mg and ˜100mg (mean of 75, 100, 125 mg; FIG. 8).
In order to understand this effect further the inventors investigated whether the low oxygen saturation in these patients is due to elevation in metHb levels. There was no difference in metHb levels at baseline between subjects with low SpO2 and those with SpO2 levels in the normal range.

A short description of series [3]: Clinical safety / cardiotoxicity of LMTM. Type of series: in vivo, human. How it is done: Therefore, doses up to 250 mg/day could be given safely for treatment of COVID-19 patients.
For series [4] the following is noted: AD patients; cited from earlier work.
In the next series the test system is mitochondrial function. The following applies: in vitro and in vivo; cited from earlier work.
A further series deals with SARS-CoV-2. The following applies: Vero cells, 48 hrs; read-out: IC50, SARS-CoV-2 antiviral activity (viral replication); cited from earlier work.

`CN(C)c1ccc2c(c1)Sc1cc(N(C)C)ccc1N2` [LMT, hydromethylthionine]: the “potency as SARS-CoV-2 antiviral relative to hydroxychloroquine and remdesivir” value in the series with SARS-CoV2 (assuming comparability of the assays) is given as “approximately 23 fold”. Moreover, the “ratio of heart and lung to brain (LMT-associated radioactivity, total MT)” value in series [1] is 2:1.
For `CN(C)c1ccc2c(c1)Sc1cc(N(C)C)ccc1N2.CS(=O)(=O)O.CS(=O)(=O)O` [LMTM, N,N,N′,N′-tetramethyl-10H-phenothiazine-3,7-diaminium bis(hydromethanesulfonate)], the metHb levels result in series [2] (higher doses, over a period of time) is listed as “systematically increases metHb levels”. In series [2] (subjects with oxygen saturation <94% at baseline, 4 hours after single dose of LMT at 4 mg and ~100 mg), the “oxygen saturation of blood” value is recorded as “significantly increased oxygen saturation”. Also, the safety across doses result in series [3] (8-250 mg/day, three Phase 3 trials in over 2,000 patients with dementia) is “well established”. Also, in series [3] (human, in vivo), the cardiotoxicity entry was “does not have the cardiotoxicity”. In addition, in series [4], the “minimum effective dose (anti-dementia effects)” value was 8 mg/day and the “optimally effective dose (anti-dementia effects)” value is 16 mg/day. Besides, the mitochondrial function entry in the series with mitochondrial function is listed as “enhance mitochondrial function”.
Regarding `CCN(CCO)CCCC(C)Nc1ccnc2cc(Cl)ccc12` (centres unmarked) [hydroxychloroquine], in the series on SARS-CoV-2, the IC50 is 720 nM.
methylthionine [MT moiety]: the IC50 in the series with SARS-CoV2 (Vero cell assay, 20 hrs, calculated from Cagno et al. data) was 32 nM.
